From ChEMBL document CHEMBL4706755, “Novel Small Molecule RNA m6A Demethylase AlkBH5 Inhibitors for Treating Cancer” (ACS Med Chem Lett, 2021)

Molecular target: RNA demethylase ALKBH5 (Homo sapiens, UniProt Q6P6C2)
Test: Inhibition of ALKBH5 demethylase activity (unknown origin) assessed as increase in methylated 6A-RNA level incubated for 2 hrs by colorimetric analysis

RNA demethylase ALKBH5, sequence (Q6P6C2 whole entry): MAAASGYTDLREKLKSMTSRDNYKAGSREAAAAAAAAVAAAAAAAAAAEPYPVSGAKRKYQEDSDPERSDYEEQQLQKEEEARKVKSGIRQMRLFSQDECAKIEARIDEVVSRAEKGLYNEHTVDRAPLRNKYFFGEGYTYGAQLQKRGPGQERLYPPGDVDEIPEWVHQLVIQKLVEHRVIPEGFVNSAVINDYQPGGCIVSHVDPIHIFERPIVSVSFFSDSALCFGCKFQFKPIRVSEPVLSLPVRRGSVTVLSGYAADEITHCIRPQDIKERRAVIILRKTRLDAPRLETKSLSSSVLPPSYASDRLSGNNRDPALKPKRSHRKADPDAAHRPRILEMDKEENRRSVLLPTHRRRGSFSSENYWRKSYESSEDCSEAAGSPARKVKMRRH

IC50: 840 nM
Compound: O=C(O)CSC(O)C(=O)c1ccccc1 (stereo unspecified)
